The term IC50 denotes the concentration at which inhibition is half-maximal. Read a low IC50 as inhibition by little substance.

The target in assay [1] is T1, TbVCL3 (Trypanosoma brucei, UniProt Q381B7).
T1 construct: gene Tb11.01.8420; full-length, untagged cRNA in Xenopus laevis oocytes; dimer expected (CLC family), heterodimer with endogenous Xenopus CLC not excluded
T1 sequence (Q381B7 1-918): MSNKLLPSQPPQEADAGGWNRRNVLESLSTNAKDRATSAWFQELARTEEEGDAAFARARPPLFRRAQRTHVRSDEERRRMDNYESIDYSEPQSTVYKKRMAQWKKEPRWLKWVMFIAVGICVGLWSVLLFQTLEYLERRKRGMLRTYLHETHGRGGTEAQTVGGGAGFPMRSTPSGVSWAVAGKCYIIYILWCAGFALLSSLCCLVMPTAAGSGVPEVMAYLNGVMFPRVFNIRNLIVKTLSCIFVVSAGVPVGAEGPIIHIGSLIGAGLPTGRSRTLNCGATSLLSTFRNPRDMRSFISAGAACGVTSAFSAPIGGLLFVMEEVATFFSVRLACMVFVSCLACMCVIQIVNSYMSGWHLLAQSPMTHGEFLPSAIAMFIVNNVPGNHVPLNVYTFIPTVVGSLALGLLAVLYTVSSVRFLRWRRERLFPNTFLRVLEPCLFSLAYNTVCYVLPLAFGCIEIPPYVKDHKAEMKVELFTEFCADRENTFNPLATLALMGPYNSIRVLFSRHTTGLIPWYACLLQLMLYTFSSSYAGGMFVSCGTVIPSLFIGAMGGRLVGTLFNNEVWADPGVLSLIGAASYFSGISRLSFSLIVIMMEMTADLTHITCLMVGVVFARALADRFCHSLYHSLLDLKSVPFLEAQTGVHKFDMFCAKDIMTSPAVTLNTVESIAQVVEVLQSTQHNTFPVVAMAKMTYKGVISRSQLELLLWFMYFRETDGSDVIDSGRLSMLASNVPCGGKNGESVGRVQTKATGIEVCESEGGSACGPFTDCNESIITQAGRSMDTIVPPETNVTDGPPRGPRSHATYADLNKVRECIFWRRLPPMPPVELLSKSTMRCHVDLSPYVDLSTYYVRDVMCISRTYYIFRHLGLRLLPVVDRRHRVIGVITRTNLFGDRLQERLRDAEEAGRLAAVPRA
The assay is described as follows: two-electrode voltage clamp, Xenopus oocytes. Format: cell-based. The text has this: two-electrode voltage clamp, Xenopus oocytes on TbVCL3 | TbVCL3-expressing oocytes ...
(Two-electrode voltage clamp holds a large cell at a set potential and records current.)

Assay [2] deals with T2, TbVCL2 (Trypanosoma brucei, UniProt Q389H3).
T2 construct: gene Tb10.26.0220; full-length, untagged cRNA in Xenopus laevis oocytes; dimer expected (CLC family), heterodimer with endogenous Xenopus CLC not excluded
T2 sequence (Q389H3 1-941): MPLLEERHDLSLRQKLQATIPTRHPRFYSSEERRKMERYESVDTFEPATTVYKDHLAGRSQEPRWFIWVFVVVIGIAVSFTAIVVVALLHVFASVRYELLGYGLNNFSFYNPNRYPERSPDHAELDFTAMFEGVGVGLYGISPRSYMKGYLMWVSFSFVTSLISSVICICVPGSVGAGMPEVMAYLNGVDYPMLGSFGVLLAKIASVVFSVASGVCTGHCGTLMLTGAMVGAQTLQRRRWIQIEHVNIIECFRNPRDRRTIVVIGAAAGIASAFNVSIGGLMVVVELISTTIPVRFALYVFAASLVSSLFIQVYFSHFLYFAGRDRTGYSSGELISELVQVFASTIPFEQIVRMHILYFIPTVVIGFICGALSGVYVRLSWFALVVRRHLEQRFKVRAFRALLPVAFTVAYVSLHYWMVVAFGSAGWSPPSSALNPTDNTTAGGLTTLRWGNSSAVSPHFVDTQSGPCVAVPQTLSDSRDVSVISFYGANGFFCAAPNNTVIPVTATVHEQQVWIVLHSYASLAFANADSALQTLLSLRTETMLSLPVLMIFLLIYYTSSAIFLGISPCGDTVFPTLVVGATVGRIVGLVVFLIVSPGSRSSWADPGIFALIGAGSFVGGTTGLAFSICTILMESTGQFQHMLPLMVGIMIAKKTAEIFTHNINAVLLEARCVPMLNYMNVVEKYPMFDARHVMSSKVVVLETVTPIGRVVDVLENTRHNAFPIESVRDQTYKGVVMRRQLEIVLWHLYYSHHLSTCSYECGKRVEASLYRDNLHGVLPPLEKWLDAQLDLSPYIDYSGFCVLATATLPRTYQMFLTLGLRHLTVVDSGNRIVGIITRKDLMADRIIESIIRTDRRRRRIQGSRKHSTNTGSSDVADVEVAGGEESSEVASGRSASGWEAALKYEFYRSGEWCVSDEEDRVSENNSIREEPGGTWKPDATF
The assay is described as follows: two-electrode voltage clamp, Xenopus oocytes. Format: cell-based.

Turning to `O=S(=O)(O)c1cc(N=C=S)ccc1/C=C/c1ccc(N=C=S)cc1S(=O)(=O)O` [DIDS, 4,4-diisothiocyanostilbene-2,2-disulphonate], the IC50 in assay [1] came to 56 ± 18 µM; in assay [2] it was 30 ± 3 µM.

For the origin of these results see publication PMC5731698, “Identification and characterization of the three members of the CLC family of anion transport proteins in Trypanosoma brucei” (PLoS ONE, 2017).
